One series has as its target T1, human platelet PDE-V (Homo sapiens, UniProt O76074).
T1 construct: Human platelet cGMP-PDE was separated from other isozymes in human platelets; from tissue; host or cells: human platelets
Briefly: cGMP-Phosphodiesterase (PDE) assay; enzymatic inhibitory test against human platelet PDE-V. It counts as biochemical. The conditions noted are these: 0.1 μM [3H]-cGMP substrate, 30° C., 10 minutes. How it is done:
[II] Test Method: cGMP-Phosphodiesterase (PDE) Assay
Human platelet cGMP-PDE was separated from other isozymes in human platelets by a modification of the method of Thompson et. al. (see Cyclic Nucleotide Phosphodiesterase (PDE), in Methods of Enzymatic analysis, Vol 4, p127-234, 1984). Specific inhibitory activity of PDE-V was measured by following procedure. In enzyme inhibition assays, the test compounds were dissolved in DMSO and then diluted with assay buffer (50 mM Tris-HCl, 0.077 mg/ml dithiothreitol and 10 mg/ml snake venom, 1 mM EGTA, pH 8.0), at final concentrations ranging from 10^−10 to 10^−6 M. Assays were performed at 0.1 μM substrate ([^3H]-cGMP) concentration, at 30° C. for 10 minutes using enzyme dilutions which gave 10-20% hydrolysis of substrate. Each assay was initiated by addition of substrate and terminated by addition of anion exchange resin (Dowex® 1-X8, […]) followed by centrifugation for 10 minutes (3000 rpm, at 4° C.). Radioactivity of supernatant ([^3H]-GMP) was assayed by liquid scintillation counting.

Bounds are passed on as bounds.

A word on the IC50: it is the point on the concentration scale where inhibition reaches its midpoint. High values mean a need for much substance, low ones inhibition by little substance. One may read the melting point as the temperature, or range, at which the solid turns liquid. Compound `COc1ccc(Cn2c(=O)n(-c3ccc4[nH]cnc4c3)c3ccc(C(F)(F)F)cc32)cc1Cl` [Example 2(21), 1-(1H-Benzimidazol-5-yl)-3-(3-chloro-4-methoxybenzyl)-5-trifluoromethyl-2,3-dihydro-1H-benzimidazol-2-one] showed a melting point of 158 to 160 °C. On human platelet PDE-V, this compound displayed an IC50 of less than 10 nM.
For the compound `COc1ccc(Cn2c(=O)n([C@H]3CC[C@H](O)CC3)c3ccc(C#N)cc32)cc1C#N` [Example 2(81), 5-Cyano-3-(3-cyano-4-methoxybenzyl)-1-(trans-4-hydroxycyclohexyl)-2,3-dihydro-1H-benzimidazol-2-one], the melting point lay within 191 to 193 °C. This compound also registered an IC50 at human platelet PDE-V of less than 10 nM.
At human platelet PDE-V, `COc1ccc(Cn2c(=O)n([C@H]3CC[C@H](O)CC3)c3ccc([N+](=O)[O-])cc32)cc1[N+](=O)[O-]` [Example 2(109), 1-(trans-4-Hydroxycyclohexyl)-3-(4-methoxy-3-nitrobenzyl)-5-nitro-1,3-dihydro-2H-benzimidazol-2-one] yielded an IC50 of less than 10 nM.
`COc1ccc(Cn2c(=O)n([C@H](C)CO)c3ncc(C(F)(F)F)cc32)cc1Cl` [Example 4(2), 1-(3-Chloro-4-methoxybenzyl)-3-((R)-2-hydroxy-1-methylethyl)-6-trifluoromethyl-2,3-dihydro-1H-imidazo[4,5-b]pyridin-2-one] had a melting point of 154.5 to 155 °C. Further, the IC50 against human platelet PDE-V was less than 10 nM.
As to `COc1ccc(Cn2c(=O)n(C3CCN(C)CC3)c3ccc(C#N)cc32)cc1Cl` [Example 28, 3-(3-chloro-4-methoxybenzyl)-5-cyano-1-(1-methylpiperidin-4-yl)-2,3-dihydro-1H-benzimidazole-2-one], the IC50 against human platelet PDE-V is less than 10 nM.
The same measure, in the same setting: the value for `COc1ccc(Cn2c(=O)n([C@H]3CC[C@H](O)CC3)c3ncc(C#N)cc32)cc1Cl` [Example 33, 1-(3-chloro-4-methoxybenzyl)-6-cyano-3-(trans-4-hydroxycyclohexyl)-2,3-dihydro-1H-imidazo[4,5-b]pyridin-2-one] was less than 10 nM.

(Values after patent publication US6582351B1, “Imidazopyridinone derivatives and their use as phosphodiesterase inhibitors” (Fujisawa Pharmaceutical Co., Ltd., priority 1999, dated 2003).)
